From patent US20230165970A1, “COMPOSITIONS AND METHODS FOR THE TREATMENT OF BACTERIAL INFECTIONS” (priority 2017, published 2023)
≈ marks a conversion by molar mass, not a printed value. Read-outs that look alike come from different tables or passages of the source. *1 amine or outer side, *2 acyl side, *3 side chain or, on linkers, in order; H or OH if unused. Where a SMILES comes first, the peptide text is derived from it. Bridges are numbered along the chain shown (N, C = ends). Roman numbers before positions name the chains, in order. [ ]: non-standard residue; d: D form. The star is where a group is joined. X5 = C#CCOCCOCCOCCOCCN1C[C@@H](C(=O)[*:1])[C@H](C(=O)[*:2])C1; X2 = O=C([C@@H](N[*:1])[C@H](O)CCC(F)(F)F)[*:2]; Propargyl(OCH2CH2)4CO = C#CCOCCOCCOCCOCCC(=O)*; X3 = CCCCC[C@@H](O)[C@H](N[*:1])C(=O)[*:2]; azaDab = NCCN(N[*:1])C(=O)[*:2]; Aoc(2) = CCCCCC[C@H](N)C(=O)O; hLeu = CC(C)CC[C@H](N)C(=O)O; Nle = CCCC[C@H](N)C(=O)O; Dab = NCC[C@H](N)C(=O)O; azaGly = NNC(=O)O

Assays:
Ec 2469 = type: cell-based, Escherichia coli
Method in brief: (§1)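 Compounds were serially diluted 2-fold (8 or 12 points) against inocula from MHA cultures, set to ~0.1 OD600 in 0.85% saline. Conjugates were tested in RPMI B. Plates were incubated at 35 °C for 16-20 h, and Pa LES431 was also run with and without 50% heat-inactivated FBS.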

Ec 25922 = type: cell-based, Escherichia coli; details: for MIC in RPMI EC 25922: pH 7.4
Method in brief: as §1

Kp 10031 = type: cell-based, Klebsiella pneumoniae
Method in brief: as §1

Kp 43816 = type: cell-based, Klebsiella pneumoniae
Method in brief: as §1

Kp 6951 (COL^R) = type: cell-based, Klebsiella pneumoniae; details: Kp 6951 (COL^R); media CA-MHB
Method in brief: as §1

Pa PAO1 = type: cell-based, Pseudomonas aeruginosa; details: for MIC in RPMI PA 01: PAO1, pH 7.4
Method in brief: as §1

Pa LES431 = type: cell-based, Pseudomonas aeruginosa
Method in brief: as §1

Pa 27853 = type: cell-based, Pseudomonas aeruginosa
Method in brief: as §1

P. aeruginosa PAO1 = type: cell-based
Experimental: (§2) Overnight stationary-phase cultures were centrifuged at 3,500×g for 10 min at room temperature and resuspended in 1×PBS to an optical density at 600 nm (OD600) of 0.4 (1×10^8 colony forming units [CFU]/ml) in RPMI with L-glutamine and phenol red (Life Technologies). Bacteria were diluted 1:25 in RPMI ([…]) and 10 ul added to wells of a non-binding 96-well plate (Corning 3641) containing 80 ul of 50% hirudin anti-coagulated blood (complement active) in RPMI. […] MBC was defined as the minimum conjugate concentration required for bacterial clearance (Table 8A and Table 8B). An untreated growth control (40% blood, 0 ug/ml conjugate) was included in all assays as a growth comparator.
(§3) MBC was defined as the minimum compound concentration required for complete bacterial clearance (Table 18).
(§4) In most cases, 2-4 fold improvements in antibacterial activity for the conjugates are observed in the presence of complement active human blood.

A. baumannii AB5075 = type: cell-based
Experimental: as §2, §3, §4

E. coli ATCC 25922 = type: cell-based
Experimental: as §2, §3, §4

Row | Structure (SMILES) | MIC (Ec 2469) [µg/mL] | MIC (Ec 25922) [µg/mL] | MIC in RPMI EC 25922 (Ec 25922) [µg/mL] | MIC (Kp 10031) [µg/mL] | MIC (Kp 43816) [µg/mL] | MIC (Kp 6951 (COL^R)) [µg/mL] | MIC (Pa PAO1; PAO1) [µg/mL] | MIC in RPMI PA 01 (Pa PAO1) [µg/mL] | MIC (Pa LES431) [µg/mL] | MIC (Pa 27853) [µg/mL] | MBC in blood PA 01 (P. aeruginosa PAO1) [µg/mL] | MBC in blood AB 5075 (A. baumannii AB5075) [µg/mL] | MBC in blood EC 25922 (E. coli ATCC 25922) [µg/mL] | further results
1 | C#CCOCCOCCOCCOCCC(=O)N[C@@H](CCC(C)C)C(=O)N[C@@H](CCN)C(=O)N[C@H](C(=O)NNC(=O)N[C@H]1CCNC(=O)[C@H]([C@@H](C)O)NC(=O)[C@H](CCN)NC(=O)[C@H](CCN)NC(=O)[C@H](CC(C)C)NC(=O)[C@@H](Cc2ccccc2)NC(=O)[C@H](CCN)NC1=O)[C@H](O)CCCCC [Int-116] ({Propargyl(OCH2CH2)4CO}-[hLeu][Dab][X3][azaGly][Dab][Dab][dF]L[Dab][Dab]T; lactam 5-C) | 2 (≈ 1.38 µM) | 2 (≈ 1.38 µM) | 1.05 (≈ 0.726 µM) | 2 (≈ 1.38 µM) | 2 (≈ 1.38 µM) | >128 | 4 (≈ 2.76 µM) | 8.41 (≈ 5.81 µM) | 4 (≈ 2.76 µM) | 4 (≈ 2.76 µM) | >0.2 | 0.05 (≈ 0.0346 µM) | 0.2 (≈ 0.138 µM) | –
2 | C#CCOCCOCCOCCOCCC(=O)N[C@@H](CCCCCC)C(=O)N[C@@H](CCN)C(=O)N[C@H](C(=O)N[C@@H](CCN)C(=O)N[C@H]1CCNC(=O)[C@H]([C@@H](C)O)NC(=O)[C@H](CCN)NC(=O)[C@H](CCN)NC(=O)[C@H](CC(C)C)NC(=O)[C@@H](Cc2ccccc2)NC(=O)[C@H](CCN)NC1=O)[C@H](O)CCC(F)(F)F [Int-118] ({Propargyl(OCH2CH2)4CO}-[Aoc(2)][Dab][X2][Dab][Dab][Dab][dF]L[Dab][Dab]T; lactam 5-C) | 1 (≈ 0.654 µM) | 1 (≈ 0.654 µM) | 0.95 (≈ 0.621 µM) | 2 (≈ 1.31 µM) | 2 (≈ 1.31 µM) | – | 2 (≈ 1.31 µM) | 3.81 (≈ 2.49 µM) | 1 (≈ 0.654 µM) | 2 (≈ 1.31 µM) | >0.2 | 0.025 (≈ 0.0164 µM) | 0.05 (≈ 0.0327 µM) | –
3 | C#CCOCCOCCOCCOCCN1C[C@@H](C(=O)N[C@@H](CCCC)C(=O)N[C@@H](CCN)C(=O)N[C@H](C(=O)NNC(=O)N[C@H]2CCNC(=O)[C@H]([C@@H](C)O)NC(=O)[C@H](CCN)NC(=O)[C@H](CCN)NC(=O)[C@H](CC(C)C)NC(=O)[C@@H](Cc3ccccc3)NC(=O)[C@H](CCN)NC2=O)[C@@H](C)O)[C@H](C(=O)N[C@@H](CCCC)C(=O)N[C@@H](CCN)C(=O)N[C@H](C(=O)NNC(=O)N[C@H]2CCNC(=O)[C@H]([C@@H](C)O)NC(=O)[C@H](CCN)NC(=O)[C@H](CCN)NC(=O)[C@H](CC(C)C)NC(=O)[C@@H](Cc3ccccc3)NC(=O)[C@H](CCN)NC2=O)[C@@H](C)O)C1 [Int-120] (I: [Nle][Dab]T[azaGly][Dab][Dab][dF]L[Dab][Dab]T / II: [Nle][Dab]T[azaGly][Dab][Dab][dF]L[Dab][Dab]T; lactam I:5-I:C, II:5-II:C; linker I:N-II:N via X5) | – | – | – | – | – | 8 (≈ 3.07 µM) | – | – | – | – | – | – | – | MIC (Ec 2469; Ec 2469, media CA-MHB): 2 µg/mL (≈ 0.767 µM); MIC (Ec 25922; Ec 25922 + FBS (50%, heat-inactivated), media CA-MHB): 0.25 µg/mL; MIC (Ec 25922; Ec 25922, media CA-MHB): 2 µg/mL (≈ 0.767 µM); MIC (Kp 10031; Kp 10031, media CA-MHB): 2 µg/mL (≈ 0.767 µM); MIC (Kp 43816; Kp 43816, media CA-MHB): 2 µg/mL (≈ 0.767 µM); MIC (Pa PAO1; Pa PAO1, media CA-MHB): 4 µg/mL (≈ 1.53 µM); MIC (Pa LES431; Pa LES431 + FBS (50%, heat-inactivated), media CA-MHB): 8 µg/mL; MIC (Pa LES431; Pa LES431, media CA-MHB): 2 µg/mL (≈ 0.767 µM); MIC (Pa 27853; Pa 27853, media CA-MHB): 4 µg/mL (≈ 1.53 µM)
4 | C#CCOCCOCCOCCOCCC(=O)N[C@@H](CCC(C)C)C(=O)N[C@@H](CCN)C(=O)N[C@H](C(=O)NN(CCN)C(=O)N[C@H]1CCNC(=O)[C@H]([C@@H](C)O)NC(=O)[C@H](CCN)NC(=O)[C@H](CCN)NC(=O)[C@H](CC(C)C)NC(=O)[C@@H](Cc2ccccc2)NC(=O)[C@H](CCN)NC1=O)[C@@H](C)O [Int-127] ({Propargyl(OCH2CH2)4CO}-[hLeu][Dab]T[azaDab][Dab][Dab][dF]L[Dab][Dab]T; lactam 5-C) | 1 (≈ 0.697 µM) | 1 (≈ 0.697 µM) | 1.00 (≈ 0.697 µM) | 1 (≈ 0.697 µM) | 1 (≈ 0.697 µM) | >128 | 2 (≈ 1.39 µM) | 3.99 (≈ 2.78 µM) | 1 (≈ 0.697 µM) | 2 (≈ 1.39 µM) | 0.1 (≈ 0.0697 µM) | 0.1 (≈ 0.0697 µM) | 0.025 (≈ 0.0174 µM) | –
5 | C#CCOCCOCCOCCOCCC(=O)N[C@@H](CCCCCC)C(=O)N[C@@H](CCN)C(=O)N[C@H](C(=O)NN(CCN)C(=O)N[C@H]1CCNC(=O)[C@H]([C@@H](C)O)NC(=O)[C@H](CCN)NC(=O)[C@H](CCN)NC(=O)[C@H](CC(C)C)NC(=O)[C@@H](Cc2ccccc2)NC(=O)[C@H](CCN)NC1=O)[C@@H](C)O [Int-129] ({Propargyl(OCH2CH2)4CO}-[Aoc(2)][Dab]T[azaDab][Dab][Dab][dF]L[Dab][Dab]T; lactam 5-C) | 2 (≈ 1.38 µM) | 1 (≈ 0.691 µM) | – | 2 (≈ 1.38 µM) | 2 (≈ 1.38 µM) | – | 8 (≈ 5.53 µM) | – | 2 (≈ 1.38 µM) | 4 (≈ 2.76 µM) | – | – | – | –
